Reference: the NIST ThermoML archive (doi:10.1021/je1012857)

Assay: xn = mol fraction of the nth substance listed
Conditions: 101 kPa, Liquid; for speed of sound: Sing-around technique in a fixed-path interferometer; for viscosity: Capillary tube (Ostwald / Ubbelohde) method

NCCN [ethane-1,2-diamine] + CC(C)CO
Conditions | mass density [kg/m3] | speed of sound [m/s] | viscosity [mPa·s]
293.15 K, x1 = 0.0664 | 809.959 | 1236.6 | –
293.15 K, x1 = 0.0967 | 813.41 | 1250.3 | –
293.15 K, x1 = 0.1652 | 821.052 | 1280.8 | –
293.15 K, x1 = 0.2002 | 824.886 | 1296.8 | –
293.15 K, x1 = 0.2617 | 831.17 | 1324.1 | –
293.15 K, x1 = 0.3019 | 835.134 | 1342.3 | –
293.15 K, x1 = 0.4093 | 844.755 | 1389.6 | –
293.15 K, x1 = 0.5014 | 852.563 | 1431 | –
293.15 K, x1 = 0.6011 | 861.131 | 1478 | –
293.15 K, x1 = 0.6911 | 868.086 | 1520.5 | –
293.15 K, x1 = 0.7887 | 876.941 | 1571.6 | –
293.15 K, x1 = 0.8471 | 882.565 | 1603.7 | –
293.15 K, x1 = 0.8998 | 887.801 | 1634.3 | –
293.15 K, x1 = 0.9391 | 892.054 | 1658.5 | –
298.15 K, x1 = 0.0664 | 806.006 | 1219.4 | 3.231
298.15 K, x1 = 0.0967 | 809.413 | 1233.1 | 3.209
298.15 K, x1 = 0.1652 | 816.964 | 1263.3 | 3.134
298.15 K, x1 = 0.2002 | 820.75 | 1279.2 | 3.094
298.15 K, x1 = 0.2617 | 826.969 | 1306.3 | 3.006
298.15 K, x1 = 0.3019 | 830.903 | 1324.5 | 2.94
298.15 K, x1 = 0.4093 | 840.455 | 1371.4 | 2.724
298.15 K, x1 = 0.5014 | 848.217 | 1412.2 | 2.495
298.15 K, x1 = 0.6011 | 856.736 | 1458.7 | 2.216
298.15 K, x1 = 0.6911 | 863.637 | 1500.6 | 1.958
298.15 K, x1 = 0.7887 | 872.42 | 1550.9 | 1.716
298.15 K, x1 = 0.8471 | 878.003 | 1582.6 | 1.591
298.15 K, x1 = 0.8998 | 883.197 | 1612.7 | 1.501
298.15 K, x1 = 0.9391 | 887.411 | 1636.5 | 1.456
303.15 K, x1 = 0.0664 | 802.02 | 1202.4 | 2.711
303.15 K, x1 = 0.0967 | 805.385 | 1216 | 2.699
303.15 K, x1 = 0.1652 | 812.854 | 1246.1 | 2.648
303.15 K, x1 = 0.2002 | 816.592 | 1261.8 | 2.625
303.15 K, x1 = 0.2617 | 822.547 | 1288.6 | 2.553
303.15 K, x1 = 0.3019 | 826.644 | 1306.7 | 2.502
303.15 K, x1 = 0.4093 | 836.134 | 1353.1 | 2.325
303.15 K, x1 = 0.5014 | 843.853 | 1393.5 | 2.135
303.15 K, x1 = 0.6011 | 852.325 | 1439.5 | 1.895
303.15 K, x1 = 0.6911 | 859.166 | 1480.6 | 1.698
303.15 K, x1 = 0.7887 | 867.883 | 1530.2 | 1.502
303.15 K, x1 = 0.8471 | 873.42 | 1561.5 | 1.404
303.15 K, x1 = 0.8998 | 878.575 | 1591.2 | 1.335
303.15 K, x1 = 0.9391 | 882.76 | 1614.6 | 1.294
308.15 K, x1 = 0.0664 | 797.994 | 1185.4 | 2.18
308.15 K, x1 = 0.0967 | 801.327 | 1198.8 | 2.169
308.15 K, x1 = 0.1652 | 808.708 | 1228.7 | 2.147
308.15 K, x1 = 0.2002 | 812.41 | 1244.4 | 2.135
308.15 K, x1 = 0.2617 | 818.501 | 1271.1 | 2.097
308.15 K, x1 = 0.3019 | 822.366 | 1288.9 | 2.059
308.15 K, x1 = 0.4093 | 831.795 | 1334.9 | 1.924
308.15 K, x1 = 0.5014 | 839.474 | 1374.9 | 1.776
308.15 K, x1 = 0.6011 | 847.896 | 1420.2 | 1.583
308.15 K, x1 = 0.6911 | 854.681 | 1460.9 | 1.446
308.15 K, x1 = 0.7887 | 863.336 | 1509.8 | 1.314
308.15 K, x1 = 0.8471 | 868.829 | 1540.7 | 1.248
308.15 K, x1 = 0.8998 | 873.941 | 1570.1 | 1.191
308.15 K, x1 = 0.9391 | 878.094 | 1593.1 | 1.154
313.15 K, x1 = 0.0664 | 793.931 | 1168.4 | –
313.15 K, x1 = 0.0967 | 797.223 | 1181.6 | –
313.15 K, x1 = 0.1652 | 804.528 | 1211.5 | –
313.15 K, x1 = 0.2002 | 808.187 | 1227.1 | –
313.15 K, x1 = 0.2617 | 814.225 | 1253.6 | –
313.15 K, x1 = 0.3019 | 818.055 | 1271.2 | –
313.15 K, x1 = 0.4093 | 827.425 | 1316.9 | –
313.15 K, x1 = 0.5014 | 835.064 | 1356.4 | –
313.15 K, x1 = 0.6011 | 843.444 | 1400.9 | –
313.15 K, x1 = 0.6911 | 850.175 | 1441.2 | –
313.15 K, x1 = 0.7887 | 858.761 | 1489.6 | –
313.15 K, x1 = 0.8471 | 864.211 | 1520.1 | –
313.15 K, x1 = 0.8998 | 869.284 | 1548.9 | –
313.15 K, x1 = 0.9391 | 873.407 | 1571.7 | –
